# Bridge positions count the residues as written; N and C are the ends. Square brackets hold non-standard residues; d marks the D form. Peptide text beside a SMILES is read from it. * marks the point of attachment. ξ: configuration not given here. Thr(3ξ) = CC(O)[C@H](N)C(=O)O; Dab = NCC[C@H](N)C(=O)O; X1 = CCCCCCC(O)C(=O)*; GABA = NCCCC(=O)O
# Legend:
# HK-2 cell line = assay: In vitro renal cell toxicity assay (resazurin reduction); assay type: cell-based, human
# Acinetobacter baumannii [1] = assay: MIC, sole activity (no second agent); assay type: cell-based
# How it was run: (§1)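 Compound tested without a second agent in cation-adjusted MHB, up to four strains per species, inoculum at 0.5 McFarland from colonies grown 18-24 h on Mueller-Hinton agar. Run in duplicate, invalid beyond 2-fold disagreement, lower duplicate or modal repeat value given, expressed relative to Polymyxin B.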
# Klebsiella pneumoniae [2] = assay: MIC, sole activity (no second agent); assay type: cell-based; conditions: for MIC K. pneumoniae CCUG-59348: strain CCUG-59348
# How it was run: as §1
# Pseudomonas aeruginosa [3] = assay: MIC, sole activity (no second agent); assay type: cell-based; conditions: for MIC P. aeruginosa ATCCCRM-9027: strain ATCCCRM-9027
# How it was run: as §1
# Escherichia coli [4] = assay: MIC, sole activity (no second agent); assay type: cell-based
# How it was run: as §1
# Acinetobacter baumannii [5] = assay: MIC, compound in combination with a second agent (broth microdilution); assay type: cell-based
# How it was run: (§2)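 Broth microdilution with inoculum from 18-24 h Mueller-Hinton agar colonies adjusted to 0.5 McFarland, up to four strains per species. Compound combined 1:1 w/w with second agent (e.g. rifampicin), mass as salt form; MIC is total drug concentration. Duplicates, lower value reported if within 2-fold; modal value for repeat tests.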
# Klebsiella pneumoniae [6] = assay: as above; assay type: cell-based; conditions: for MIC K. pneumoniae ATCC-BAA-2146: strain ATCC-BAA-2146; for MIC K. pneumoniae CCUG-59348: strain CCUG-59348; for MIC K. pneumoniae NCTC 13438: strain NCTC 13438
# How it was run: as §2
# Pseudomonas aeruginosa [7] = assay: as above; assay type: cell-based
# How it was run: as §2
# Escherichia coli [8] = assay: as above; assay type: cell-based
# How it was run: as §2
# [9] = tested on: Klebsiella pneumoniae ATCC10031; conditions: 10 mg/kg/day, neutropenic mice thigh infection
# Protocol: At 1 h, the CFU count was determined from 5 mice and the remaining mice (five per group) were treated with a subcutaneous injection of the drug at +1 and 6 hr post-infection.
# Twenty-four hours after infection, the mice were euthanized humanely. The muscle of the right thigh of each animal was harvested, homogenized, serially diluted and plated on Brain Heart Infusion agar+0.5% charcoal (w/v) for CFU determination. Decrease of the total CFU of right thigh as compared to control counts at 24 h post-infection was determined for each dose group.
# [10] = rats, 8 mg/kg BID regimen, seven days, compared to Colistin at the same dose regimen
# Protocol: After one week acclimatisation, male Sprague-Dawley rats were surgically prepared with a jugular cannula and were housed individually, as required, either in pre-assigned housing cages or metabolic cages. Colistin and the Example Compounds were prepared in saline.
# Compounds were introduced via the jugular cannula twice a day 7 hours apart for seven days. Each dose was increased progressively for three days up to the top dose that was then administered until termination of the study. Twenty-four hour urine collection (on ice) was performed at pre-dose and on days 4 and 7. The dose regimen is set out in Table 10 below.
# The doses in the table are indicated in mg drug base/kg (free base).
# The activity in urine of the N-acetyl-beta-D-glucosaminidase (NAG) was determined spectrophotometrically using the NAG assay kit from Roche Applied Science. Biomarkers of kidney injury were determined using the Kidney Injury Panel II from the Multi-Spot® Assay System (Meso Scale Discovery).
# [11] = Second Agent none (Table 7B, by row order)
# [12] = in the absence of Rifampicin, strain ATCC 4352
# [13] = in the absence of Rifampicin, strain ATCC27853
# [14] = in the absence of Rifampicin, strain ATCC25922
# [15] = in the absence of Rifampicin, strain NCTC9001
# [16] = 1:1 combination with Ciprofloxacin (by row order), total drug concentration
# [17] = 1:1 (wt:wt) combination with Rifampicin, MIC = total drug concentration
# [18] = 1:1 combination with Ciprofloxacin, total drug concentration
# [19] = 1:1 combination with Tigecycline, total drug concentration
# [20] = 1:1 combination with Vancomycin, total drug concentration
structure (smiles),measurement,setting,value
"CCCCCCC(O)C(=O)N[C@H](C(=O)N[C@@H](CCN)C(=O)N[C@H]1CCNC(=O)[C@H]([C@@H](C)O)NC(=O)[C@H](CCN)NC(=O)[C@H](CCN)NC(=O)[C@H](CC(C)C)NC(=O)[C@@H](Cc2ccccc2)NC(=O)[C@H](CCN)NC1=O)[C@@H](C)O (stereo partly drawn) [Example 1, [2(R,S)-2-Hydroxyoctanoyl] polymyxin B nonapeptide] (X1-T[Dab][Dab][Dab][dF]L[Dab][Dab]T; lactam 3-C)",HK-2 toxicity (IC50) compared with PMB,HK-2 cell line,significantly increased recorded IC50 values
same,MIC A. baumannii NCTC 13424,Acinetobacter baumannii [1]; [11],4 micrograms/mL
same,MIC A. baumannii ATCCBAA-747,"Acinetobacter baumannii [1]; in the absence of Rifampicin, strain ATCCBAA-747",2 micrograms/mL
same,MIC A. baumannii NCTC 13423,"Acinetobacter baumannii [1]; in the absence of Rifampicin, strain NCTC13423",1 micrograms/mL
same,MIC K. pneumoniae ATCC BAA-1706,"Klebsiella pneumoniae [2]; K. pneumoniae ATCC BAA-1706, second agent none",4 micrograms/mL
same,MIC K. pneumoniae CCUG 59348,"Klebsiella pneumoniae [2]; K. pneumoniae CCUG 59348, second agent none",>32 micrograms/mL
same,MIC K. pneumoniae NCTC 13442,"Klebsiella pneumoniae [2]; K. pneumoniae NCTC 13442, second agent none",8 micrograms/mL
same,MIC K. pneumoniae CCUG 59348,Klebsiella pneumoniae [2]; Second Agent none (Table 7A),>32 microgram/mL
same,MIC K. pneumoniae CCUG 59626,Klebsiella pneumoniae [2]; Second Agent none (Table 7A),2 microgram/mL
same,MIC K. pneumoniae NCTC 13442,Klebsiella pneumoniae [2]; Second Agent none (Table 7A),8 microgram/mL
same,MIC K. pneumoniae CCUG 59348,Klebsiella pneumoniae [2]; Second Agent none (Table 7B),>32 micrograms/mL
same,MIC K. pneumoniae NCTC 13442,Klebsiella pneumoniae [2]; Second Agent none (Table 7B),8 micrograms/mL
same,MIC K. pneumoniae ATCC 4352,Klebsiella pneumoniae [2]; [11],1 micrograms/mL
same,MIC K. pneumoniae ATCC BAA-1706,Klebsiella pneumoniae [2]; [11],4 micrograms/mL
same,MIC K. pneumoniae CCUG 59348,Klebsiella pneumoniae [2]; Second Agent none (Table 7C),>32 micrograms/mL
same,MIC K. pneumoniae NCTC 13442,Klebsiella pneumoniae [2]; Second Agent none (Table 7C),8 micrograms/mL
same,MIC K. pneumoniae ATCC 4352,Klebsiella pneumoniae [2]; [12],1 micrograms/mL
same,MIC K. pneumoniae CCUG-59348,Klebsiella pneumoniae [2]; in the absence of Rifampicin,>32 micrograms/mL
same,MIC P. aeruginosa CCUG 59626,"Pseudomonas aeruginosa [3]; P. aeruginosa CCUG 59626, second agent none",2 micrograms/mL
same,MIC P. aeruginosa ATCC 27853,Pseudomonas aeruginosa [3]; [11],0.5 micrograms/mL
same,MIC P. aeruginosa CCUG 59626,Pseudomonas aeruginosa [3]; [11],2 micrograms/mL
same,MIC P. aeruginosa CCUG 59626,Pseudomonas aeruginosa [3]; Second Agent none (Table 7C),2 micrograms/mL
same,MIC P. aeruginosa ATCC 27853,Pseudomonas aeruginosa [3]; [13],0.5 micrograms/mL
same,MIC P. aeruginosa ATCCCRM-9027,Pseudomonas aeruginosa [3]; in the absence of Rifampicin,0.25 micrograms/mL
same,MIC P. aeruginosa CCUG 59626,"Pseudomonas aeruginosa [3]; in the absence of Rifampicin, strain CCUG 59626",2 micrograms/mL
same,MIC E. coli NCTC9001,"Escherichia coli [4]; E. coli NCTC9001, second agent none",4 micrograms/mL
same,MIC E. coli NCTC9001,Escherichia coli [4]; Second Agent none (Table 7A),4 microgram/mL
same,MIC E. coli ATCC25922,Escherichia coli [4]; Second Agent none (Table 7B),4 micrograms/mL
same,MIC E. coli CCUG 59342,Escherichia coli [4]; Second Agent none (Table 7B),1 micrograms/mL
same,MIC E. coli NCTC9001,Escherichia coli [4]; Second Agent none (Table 7B),8 micrograms/mL
same,MIC E. coli NCTC9001,Escherichia coli [4]; Second Agent none (Table 7C),4 micrograms/mL
same,MIC E. coli ATCC25922,Escherichia coli [4]; [14],2 micrograms/mL
same,MIC E. coli NCTC9001,Escherichia coli [4]; [15],2 micrograms/mL
same,MIC A. baumannii CCUG57249,"Acinetobacter baumannii [5]; 1:1 (wt:wt) combination with Rifampicin, MIC = total drug concentration, strain CCUG57249",0.25 micrograms/mL
same,MIC A. baumannii NCTC 13424,"Acinetobacter baumannii [5]; 1:1 (wt:wt) combination with Rifampicin, MIC = total drug concentration, strain NCTC 13424",0.25 micrograms/mL
same,MIC A. baumannii NCTC 13424,Acinetobacter baumannii [5]; [16],0.5 micrograms/mL
same,MIC K. pneumoniae ATCC 4352,"Klebsiella pneumoniae [6]; 1:1 (wt:wt) combination with Rifampicin, MIC = total drug concentration, strain ATCC 4352",1 micrograms/mL
same,MIC K. pneumoniae ATCC-BAA-2146,Klebsiella pneumoniae [6]; [17],2 micrograms/mL
same,MIC K. pneumoniae CCUG-59348,Klebsiella pneumoniae [6]; [17],2 micrograms/mL
same,MIC K. pneumoniae NCTC 13438,Klebsiella pneumoniae [6]; [17],1 micrograms/mL
same,MIC K. pneumoniae ATCC 4352,Klebsiella pneumoniae [6]; [16],≤0.06 micrograms/mL
same,MIC K. pneumoniae ATCC BAA-1706,Klebsiella pneumoniae [6]; [16],0.5 micrograms/mL
same,MIC K. pneumoniae CCUG 59348,Klebsiella pneumoniae [6]; [18],32 micrograms/mL
same,MIC K. pneumoniae NCTC 13442,Klebsiella pneumoniae [6]; [18],1 micrograms/mL
same,MIC K. pneumoniae CCUG 59348,Klebsiella pneumoniae [6]; [19],>32 micrograms/mL
same,MIC K. pneumoniae NCTC 13442,Klebsiella pneumoniae [6]; [19],16 micrograms/mL
same,MIC K. pneumoniae CCUG 59348,Klebsiella pneumoniae [6]; [20],>32 microgram/mL
same,MIC K. pneumoniae CCUG 59626,Klebsiella pneumoniae [6]; [20],2 microgram/mL
same,MIC K. pneumoniae NCTC 13442,Klebsiella pneumoniae [6]; [20],8 microgram/mL
same,MIC K. pneumoniae ATCC BAA-1706,"Klebsiella pneumoniae [6]; K. pneumoniae ATCC BAA-1706, 1:1 combination with Meropenem, total drug concentration",4 micrograms/mL
same,MIC K. pneumoniae CCUG 59348,"Klebsiella pneumoniae [6]; K. pneumoniae CCUG 59348, 1:1 combination with Meropenem, total drug concentration",>32 micrograms/mL
same,MIC K. pneumoniae NCTC 13442,"Klebsiella pneumoniae [6]; K. pneumoniae NCTC 13442, 1:1 combination with Meropenem, total drug concentration",8 micrograms/mL
same,MIC P. aeruginosa ATCC 27853,"Pseudomonas aeruginosa [7]; 1:1 (wt:wt) combination with Rifampicin, MIC = total drug concentration, strain ATCC 27853",0.5 micrograms/mL
same,MIC P. aeruginosa ATCC-47,"Pseudomonas aeruginosa [7]; 1:1 (wt:wt) combination with Rifampicin, MIC = total drug concentration, strain ATCC-47",1 micrograms/mL
same,MIC P. aeruginosa CCUG 59626,"Pseudomonas aeruginosa [7]; 1:1 (wt:wt) combination with Rifampicin, MIC = total drug concentration, strain CCUG 59626",1 micrograms/mL
same,MIC P. aeruginosa ATCC 27853,Pseudomonas aeruginosa [7]; [16],0.125 micrograms/mL
same,MIC P. aeruginosa CCUG 59626,Pseudomonas aeruginosa [7]; [16],1 micrograms/mL
same,MIC P. aeruginosa CCUG 59626,Pseudomonas aeruginosa [7]; [19],2 micrograms/mL
same,MIC P. aeruginosa CCUG 59626,"Pseudomonas aeruginosa [7]; P. aeruginosa CCUG 59626, 1:1 combination with Meropenem, total drug concentration",2 micrograms/mL
same,MIC E. coli NCTC9001,"Escherichia coli [8]; 1:1 (wt:wt) combination with Rifampicin, MIC = total drug concentration, strain NCTC9001",0.5 micrograms/mL
same,MIC E. coli ATCC25922,Escherichia coli [8]; [18],≤0.06 micrograms/mL
same,MIC E. coli CCUG 59342,Escherichia coli [8]; [18],2 micrograms/mL
same,MIC E. coli NCTC9001,Escherichia coli [8]; [18],≤0.06 micrograms/mL
same,MIC E. coli NCTC9001,Escherichia coli [8]; [19],4 micrograms/mL
same,MIC E. coli NCTC9001,Escherichia coli [8]; [20],4 microgram/mL
same,MIC E. coli NCTC9001,"Escherichia coli [8]; E. coli NCTC9001, 1:1 combination with Meropenem, total drug concentration",0.25 micrograms/mL
same,reduction in bacterial counts,[9],approx. 2 log10
same,"levels of the renal biomarkers NAG, albumin and cystatin C in urine",[10],significantly reduced levels
"CC(C)C[C@@H]1NC(=O)[C@@H](Cc2ccccc2)NC(=O)[C@H](CCN)NC(=O)[C@@H](NC(=O)[C@H](CCN)NC(=O)[C@@H](NC(=O)CCCN)C(C)O)CCNC(=O)[C@H](C(C)O)NC(=O)[C@H](CCN)NC(=O)[C@H](CCN)NC1=O (stereo partly drawn) [Example 4, 4-Aminobutanoyl polymyxin B nonapeptide] (H-[GABA][Thr(3ξ)][Dab][Dab][Dab][dF]L[Dab][Dab][Thr(3ξ)]; lactam 4-C)",MIC K. pneumoniae ATCC 4352,Klebsiella pneumoniae [2]; [12],1 micrograms/mL
same,MIC K. pneumoniae ATCC-BAA2146,"Klebsiella pneumoniae [2]; in the absence of Rifampicin, strain ATCC-BAA2146",>32 micrograms/mL
same,MIC K. pneumoniae CCUG-59348,Klebsiella pneumoniae [2]; in the absence of Rifampicin,>32 micrograms/mL
same,MIC K. pneumoniae NCTC-13438,"Klebsiella pneumoniae [2]; in the absence of Rifampicin, strain NCTC-13438",>32 micrograms/mL
same,MIC P. aeruginosa ATCC 27853,Pseudomonas aeruginosa [3]; [13],0.25 micrograms/mL
same,MIC P. aeruginosa ATCCCRM-9027,Pseudomonas aeruginosa [3]; in the absence of Rifampicin,0.125 micrograms/mL
same,MIC E. coli ATCC25922,Escherichia coli [4]; [14],2 micrograms/mL
same,MIC E. coli NCTC9001,Escherichia coli [4]; [15],8 micrograms/mL
same,MIC K. pneumoniae ATCC-BAA-2146,Klebsiella pneumoniae [6]; [17],2 micrograms/mL
same,MIC K. pneumoniae CCUG-59348,Klebsiella pneumoniae [6]; [17],16 micrograms/mL
same,MIC K. pneumoniae NCTC 13438,Klebsiella pneumoniae [6]; [17],0.5 micrograms/mL
same,reduction in bacterial counts,[9],approx. 2 log10
same,"levels of the renal biomarkers NAG, albumin and cystatin C in urine",[10],significantly reduced levels

# — patent US10407467B2, “Polymyxin derivatives and their use in combination therapy together with different antibiotics” (priority 2013, dated 2019)
